Counter-ions that a name gives are not always drawn.
Key:
[1] = Measurement of solubility in various solvents; type: physicochemical; settings: 0.1 g of sample, 15 to 25° C., within 30 minutes
Method: Specifically, 0.1 g of sample was accurately weighed, put into each solvent, and shaken and mixed vigorously for 30 seconds every 5 minutes at 15 to 25° C., and the amount dissolved within 30 minutes was measured.

[2] = Measurement of solubility in water (shake-flask, UPLC); type: physicochemical; settings: water, shake-flask shaken for 24 hours, UPLC
Method: Compounds are dissolved in DMSO and measured by UPLC, and then a calibration curve is drawn. The compounds saturated by the Shake-flask method are filtered and then measured by UPLC, and it is substituted into a calibration curve to calculate the concentration.

[3] = Purity and stability under accelerated and long-term storage conditions (HPLC); type: physicochemical; settings: listed as Crystalline monohydrate of citrate in Example 3; for Long-term storage conditions (related substances) (area %): 25±2° C., humidity 60±5%; for Accelerated storage conditions (related substances) (area %): 40±2° C., humidity 75±5%
Method: The purity and stability of the crystalline anhydride of the citrate prepared in Example 2 and the crystalline monohydrate of the citrate prepared in Example 3 according to the present invention were evaluated, and the results are shown in Tables 8 and 9 below.
In the tables below, stability tests were conducted under accelerated storage conditions of a temperature of 40±2° C. and humidity of 75±5%, and purity and stability tests were conducted under long-term storage conditions of a temperature of 25±2° C. and humidity of 60±5%. Experimental results were measured under the same conditions as in Experimental Example 1 using HPLC (product name: agilent 1290, manufacturer: Agilent).

tankyrase-2 enzyme = target: T1, tankyrase-2 enzyme (Homo sapiens, UniProt Q9H2K2); assay: Inhibition test of tankyrase-2 enzyme (BPS Bioscience kit); type: biochemical; settings: tankyrase-2 enzyme 15 ng/well, 25° C. for 1 hour; read-out: IC50 (tankyrase-2 enzyme inhibitory activity)
T1 construct: purchased BPS Bioscience 80578
Method: Histones were coated on a 96-well plate provided from BPS Bioscience's kit and left at 4 °C for 16 hours. […] After 1 hour, each well was washed 4 times with PBST, and streptavidin-linked peroxidase (Strep-HRP, 1:50 dilution) was added thereto to measure the amount of ribosylation by PARP enzyme, and reacted at 25° C. for 30 minutes. The plate was washed 4 times with PBST, and then HRP chemiluminescent substrate was finally added thereto and reacted. The amount of histone ribosylation formed by each enzyme was quantified using a Synergy™ H4 Hybrid Multi-Mode Microplate Reader (BioTek Instruments, Inc., US (A)).

PARP-1 enzyme = PARP-1 enzyme (Homo sapiens, UniProt P09874); assay: Inhibition test of poly (ADP-ribose) polymerase [PARP-1] enzyme (BPS Bioscience kit); settings: read-out: IC50 (PARP-1 enzyme inhibitory activity); PARP-1 enzyme 50 ng/well, 25° C. for 1 hour
Method: Histones were coated on a 96-well plate provided from BPS Bioscience's kit and left at 4° C. for 16 hours. […] After 1 hour, each well was washed 4 times with PBST, and streptavidin-linked peroxidase (Strep-HRP, 1:50 dilution) was added thereto to measure the amount of ribosylation by PARP enzyme, and reacted at 25° C. for 30 minutes. The plate was washed 4 times with PBST, and then HRP chemiluminescent substrate was finally added thereto and reacted. The amount of histone ribosylation formed by each enzyme was quantified using a Synergy™ H4 Hybrid Multi-Mode Microplate Reader (BioTek Instruments, Inc., US (A)).

[4] = Stability of the addition salt of Compound 1 (temperature, humidity, light; purity by HPLC); type: physicochemical
Method: The stability of crystals of the addition salt of Compound 1 prepared in the Examples and Comparative Examples above was confirmed, and the results are shown in Table 5 below.
Experiments according to temperature, humidity and light conditions were carried out by a method of confirming purity by HPLC after storage in a stability chamber under each condition.
Each sample was spread thinly in a Petri dish, and then the stability was evaluated after irradiation with UV light having a light intensity of 35 W to a total irradiation amount of 200 watts under conditions of 25° C. and 60% humidity using a photostability test chamber (CARON 6542-2).
Each sample was spread thinly in a Petri dish, and then the stability was evaluated after irradiation with visible light having a light intensity of 35 k Lux to a total irradiation amount of 1200 k lux under conditions of 25° C. and 60% humidity using a photostability test chamber (CARON 6542-2).

PARP-1 enzyme, sequence (P09874 whole entry): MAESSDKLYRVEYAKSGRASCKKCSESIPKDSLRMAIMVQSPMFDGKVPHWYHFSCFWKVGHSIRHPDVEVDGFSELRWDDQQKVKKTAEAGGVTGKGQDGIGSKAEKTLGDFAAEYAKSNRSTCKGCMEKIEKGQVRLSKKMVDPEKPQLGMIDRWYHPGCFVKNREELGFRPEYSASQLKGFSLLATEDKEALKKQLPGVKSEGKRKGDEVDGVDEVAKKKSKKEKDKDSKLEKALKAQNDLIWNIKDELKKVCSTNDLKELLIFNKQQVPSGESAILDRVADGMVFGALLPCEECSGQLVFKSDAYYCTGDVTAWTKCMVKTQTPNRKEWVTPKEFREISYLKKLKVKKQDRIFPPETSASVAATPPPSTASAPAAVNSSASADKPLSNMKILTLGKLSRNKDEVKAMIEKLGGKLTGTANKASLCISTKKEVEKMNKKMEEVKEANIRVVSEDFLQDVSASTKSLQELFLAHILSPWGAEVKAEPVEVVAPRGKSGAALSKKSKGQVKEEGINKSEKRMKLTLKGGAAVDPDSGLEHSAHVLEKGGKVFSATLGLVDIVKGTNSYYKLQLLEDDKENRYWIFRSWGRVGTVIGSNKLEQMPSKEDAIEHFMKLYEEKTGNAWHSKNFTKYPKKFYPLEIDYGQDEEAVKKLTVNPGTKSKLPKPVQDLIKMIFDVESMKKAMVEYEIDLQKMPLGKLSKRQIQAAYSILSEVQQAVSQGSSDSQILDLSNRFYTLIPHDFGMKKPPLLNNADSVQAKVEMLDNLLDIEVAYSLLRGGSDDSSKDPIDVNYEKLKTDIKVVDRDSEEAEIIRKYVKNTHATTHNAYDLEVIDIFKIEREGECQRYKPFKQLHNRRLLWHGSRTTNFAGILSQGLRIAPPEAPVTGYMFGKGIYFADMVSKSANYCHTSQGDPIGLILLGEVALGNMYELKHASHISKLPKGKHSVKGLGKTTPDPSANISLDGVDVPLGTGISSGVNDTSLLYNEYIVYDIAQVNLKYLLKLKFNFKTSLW
T1 sequence (Q9H2K2 849-1166): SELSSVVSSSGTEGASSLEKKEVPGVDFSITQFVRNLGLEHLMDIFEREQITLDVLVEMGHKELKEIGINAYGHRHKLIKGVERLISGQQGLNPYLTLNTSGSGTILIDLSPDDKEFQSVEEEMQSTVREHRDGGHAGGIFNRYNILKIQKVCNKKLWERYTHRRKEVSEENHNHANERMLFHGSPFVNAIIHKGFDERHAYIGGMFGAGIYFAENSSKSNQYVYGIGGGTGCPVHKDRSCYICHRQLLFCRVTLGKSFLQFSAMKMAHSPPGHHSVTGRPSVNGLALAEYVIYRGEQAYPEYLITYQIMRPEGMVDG

Compound: N#Cc1ccc(N2CCN(Cc3ccc4c5c(c(=O)[nH]c4c3)CCCN5)CC2)nc1 [Example 4, Citrate Dihydrate of 6-{4-[(5-oxo-1,2,3,4,5,6-hexahydrobenzo[h][1,6]naphthyridin-8-yl)methyl]piperazine-1-yl}nicotinonitrile]
- Solubility (0.1 g/mL) ([1]; Aqueous HCl solution (pH 1.1), listed as Crystalline dihydrate of citrate in Example 4): 55 mL
- Solubility (0.1 g/mL) ([1]; DMF, listed as Crystalline dihydrate of citrate in Example 4): 2.5 mL
- Solubility (0.1 g/mL) ([1]; EtOH, listed as Crystalline dihydrate of citrate in Example 4): 450 mL
- Solubility (0.1 g/mL) ([1]; MeOH, listed as Crystalline dihydrate of citrate in Example 4): 9 mL
- Solubility (0.1 g/mL) ([1]; Water, listed as Crystalline dihydrate of citrate in Example 4): ≥ 400 mL

Compound: N#Cc1ccc(N2CCN(Cc3ccc4c5c(c(=O)[nH]c4c3)CCCN5)CC2)nc1 [Compound 1, 6-{4-[(5-oxo-1,2,3,4,5,6-hexahydrobenzo[h][1,6]naphthyridin-8-yl)methyl]piperazin-1-yl}nicotinonitrile]
- Water solubility ([2]; listed as Crystal (free form) of the compound of Formula 1 in Comparative Example 1-1): 1 µM
- Solubility (0.1 g/mL) ([1]; Aqueous HCl solution (pH 1.1), listed as Free form): 350 mL
- Solubility (0.1 g/mL) ([1]; DMF, listed as Free form): 8 mL
- Solubility (0.1 g/mL) ([1]; EtOH, listed as Free form): ≥ 1000 mL
- Solubility (0.1 g/mL) ([1]; MeOH, listed as Free form): 300 mL
- Solubility (0.1 g/mL) ([1]; Water, listed as Free form): ≥ 1200 mL

Compound: N#Cc1ccc(N2CCN(Cc3ccc4c5c(c(=O)[nH]c4c3)CCCN5)CC2)nc1 [Example 3, Citrate Monohydrate of 6-{4-[(5-oxo-1,2,3,4,5,6-hexahydrobenzo[h][1,6]naphthyridin-8-yl)methyl]piperazine-1-yl}nicotinonitrile]
- Solubility (0.1 g/mL) ([1]; Aqueous HCl solution (pH 1.1), listed as Crystalline monohydrate of citrate in Example 3): 50 mL
- Solubility (0.1 g/mL) ([1]; DMF, listed as Crystalline monohydrate of citrate in Example 3): 2.9 mL
- Solubility (0.1 g/mL) ([1]; EtOH, listed as Crystalline monohydrate of citrate in Example 3): 350 mL
- Solubility (0.1 g/mL) ([1]; MeOH, listed as Crystalline monohydrate of citrate in Example 3): 9 mL
- Solubility (0.1 g/mL) ([1]; Water, listed as Crystalline monohydrate of citrate in Example 3): 400 mL
- Long-term storage conditions (related substances) (area %) ([3]; 3 months): 0.29%
- Long-term storage conditions (related substances) (area %) ([3]; 6 months): 0.32%
- Long-term storage conditions (related substances) (area %) ([3]; initial): 0.38%
- Accelerated storage conditions (related substances) (area %) ([3]; 3 months): 0.34%
- Accelerated storage conditions (related substances) (area %) ([3]; 6 months): 0.32%
- Accelerated storage conditions (related substances) (area %) ([3]; initial): 0.38%

Compound: Cl.Cl.N#Cc1ccc(N2CCN(Cc3ccc4c5c(c(=O)[nH]c4c3)CCCN5)CC2)nc1 [Comparative Example 2, Dichloride Salt of 6-{4-[(5-oxo-1,2,3,4,5,6-hexahydrobenzo[h][1,6]naphthyridin-8-yl)methyl]piperazine-1-yl}nicotinonitrile]
- IC50 (tankyrase-2 enzyme): 1.12 nM
- Water solubility [2]: 392 µM
- IC50 (PARP-1 enzyme): 3.03 nM
- Purity (%) ([4]; Humidity of 75%, 3 days): 97.76%
- Purity (%) ([4]; Initial value): 97.89%
- Purity (%) ([4]; Temperature of 40° C., humidity of 70%, 3 days): 97.83%
- Purity (%) ([4]; Temperature of 50° C., 3 days): 97.79%
- Purity (%) ([4]; UV 200 watt - dark): 97.89%
- Photostability (in words) ([4]; UV200 watt and Visible1200 k lux): remarkably poor photostability
- Purity (%) ([4]; UV 200 watt, 25° C. and 60% humidity): 86.89%
- Purity (%) ([4]; Visible 1200k lux - dark): 97.89%
- Purity (%) ([4]; Visible 1200k lux, 25° C. and 60% humidity): 93.40%
- Stability in the temperature and humidity (in words) ([4]; temperature and humidity conditions of Table 5): stable

Reference: patent US20240246933A1, “CRYSTALLINE FORM OF TRICYCLIC DERIVATIVE COMPOUND, METHOD FOR PREPARING SAME, AND PHARMACEUTICAL COMPOSITION COMPRISING SAME” (ONCONIC THERAPEUTICS INC., priority 2021, published 2024)
